From patent US9040591B2, “Methods and compositions comprising at least one α3 βA4 nAChR antagonist or pharmaceutically acceptable salt thereof” (AGI Therapeutics Public Limited Company, priority 2003, dated 2015)
Structures can show the parent of a compound that is named as a salt. Blank lines part the entries; values can stand above or below the molecule they belong to.

Experiments:
[1] = 2.5 mg dose, conventional formulation, adults; cited from earlier work
[2] = Second clinical trial, treatment emergent effects associated with ganglion blocking activity; type: in vivo, human
Protocol: In a second clinical trial, the frequency of treatment emergent effects typically associated with “ganglion blocking” activity was assessed. The following treatment emergent effects were found: […]

[3] = Pharmacokinetics of oral conventional formulation in adults (Young et al. 2001); type: in vivo, human adults; conditions: expected
Protocol: Bear et al., Am. J. Physiol., 186, 180-86 (1956). […] Young et al., Clinical Therapeutics, 23(4) (2001). […] The typical dose used for treating hypertensive subjects is about 25 mg/day, and is dosed using conventional formulations.

[4] = system: patients with dominant chronic diarrhea symptoms (functional diarrhea); experiment: Example 3 randomized, double-blind, placebo-controlled forced dose escalation study in Functional Diarrhea; type: in vivo, human; conditions: for number of patients showing improvement in stool consistency / percent of patients showing improvement in stool consistency: modified per-protocol population
From the text: Eight-two patients (both male and female) meeting ROME II criteria (modified) for Functional Diarrhea were randomized in the study. […] For example, the following table summarizes the number of patients showing “improvement” in stool consistency. Prior to treatment, patients were to be experiencing >50% of the time, a mushy/watery stool consistency in at least 75% of their daily stools. “Improvement” represents a patient experiencing <50% of the time, a mushy/watery stool consistency in at least 75% of daily stools.

[5] = Clinical study of transdermal mecamylamine patches in smokers, treatment emergent effects; type: in vivo, human; conditions: for Side effect: Constipation: transdermal patches of Example 1, smokers but otherwise healthy subjects
From the text: The mecamylamine transdermal formulation is a transdermal patch that contains mecamylamine blended with an acrylic adhesive that is coated onto a printed backing to produce transdermal patches.

[6] = transdermal patches of Example 1, smokers

SMILES: CNC1(C)C2CCC(C2)C1(C)C (stereo not drawn) [mecamylamine hydrochloride, N-2,3,3-tetramethylbicyclo[2.2.1]heptan-2-amine hydrochloride]
- maximum plasma concentration (Cmax) [1]: about 7.89 ng/mL

- 24 hour plasma concentration level as % of peak plasma concentration [3]: less than 25%
- time for which about 50% of the peak plasma concentration is maintained [3]: about 14 hours
SMILES: CNC1(C)C2CCC(C2)C1(C)C (stereo not drawn) [Mecamylamine, N-2,3,3-tetramethylbicyclo-[2.2.1]heptan-2-amine]
- Side effect: Cardiac Disorder [2]: 1.3%
- Side effect: Constipation [2]: 28.9%
- Side effect: Dizziness [2]: 4.0%
- Side effect: Dry Mouth [2]: 3.4%
- Side effect: Eye [2]: 0.7%
- Side effect: Gastrointestinal [2]: 4.36%
- Side effect: Nausea [2]: 5.4%
- Side effect: Urinary Retention [2]: 0.7%
- overall incidence of adverse events versus placebo ([4]; 12-week study): similar
- changes in blood pressure ([4]; 12-week study, FIGS. 1 and 2): no clinically significant changes in blood pressure
- number of patients showing improvement in stool consistency ([4]; Entire Study): 8/18
- percent of patients showing improvement in stool consistency ([4]; Entire Study): 44.4%
- number of patients showing improvement in stool consistency ([4]; Week 4 (2 mg/day)): 8/18
- percent of patients showing improvement in stool consistency ([4]; Week 4 (2 mg/day)): 44.4%
- number of patients showing improvement in stool consistency ([4]; Week 8 (4 mg/day)): 8/18
- percent of patients showing improvement in stool consistency ([4]; Week 8 (4 mg/day)): 44.4%
- number of patients showing improvement in stool consistency ([4]; Week 12 (6 mg/day)): 9/18
- percent of patients showing improvement in stool consistency ([4]; Week 12 (6 mg/day)): 50.0%
- primary and secondary endpoints versus placebo ([4]; intent-to-treat analysis, entire 12 weeks of dose-escalation therapy): failed to show any statistically significant difference from placebo
- stool consistency versus placebo ([4]; intent-to-treat analysis, week 4 (2 mg/day)): improvement in stool consistency
- stool consistency versus placebo ([4]; modified per-protocol population (n=35), entire dose-escalation and each dose treatment phase): significant improvements in stool consistency
- Side effect: Application [5, 6]: 25%
- Side effect: Asthenia [5, 6]: 14%
- Side effect: Dizziness [5, 6]: 17%
- Side effect: Headache [5, 6]: 36%
- Side effect: Insomnia [5, 6]: 14%
- Side effect: Nausea [5, 6]: 15%
- Side effect: Rash [5, 6]: 13%
- Side effect: Constipation [5]: 42%
- Side effect: Constipation ([5]; listed as mecamylamine): 42%
